Reference: patent US7071179B2, “Method of locking 1α-OH of vitamin D compounds in axial orientation” (Wisconsin Alumni Research Foundation, priority 1998, dated 2006)

Legend:
[1] = biological testing of 10,19-dihydrovitamin D3 compounds, in vivo biological response; conditions: compared among the 1α,25-dihydroxy-10,19-dihydrovitamin D3 compounds tested
[2] = system: intestinal calcium transport; test: intestinal calcium transport activity; conditions: in vivo

CC(CCCC(C)(C)O)C1CCC2C(=CC=C3CC(O)CC(O)C3C)CCCC21C [1α,25-dihydroxy-10(S), 19-dihydrovitamin D3]
in vivo biological response [1]: greatest in vivo biological response
activity on intestinal calcium transport [2]: very significant activity
